Source: publication PMC10035370, “Targeting Tumor Angiogenesis with the Selective VEGFR-3 Inhibitor EVT801 in Combination with Cancer Immunotherapy” (Cancer Research Communications, 2022)
Where two headings read alike, the source gives them in different places.

Assays:
hLMVEC = assay: Growth factor-induced hLMVEC proliferation; format: cell-based, human; settings: for IC50: Homo sapiens
Description: hLMVEC were seeded in white cell culture-treated flat and clear bottom multi-well plates and incubated at 37 °C overnight, before compounds were added. After incubation for 72 h at 37 °C, plates were equilibrated to ambient temperature for 1 h, and CellTiterGlo reagent (Promega) was added. After approximately 1h, luminescence was measured using a luminometer. Curves were fitted via sigmoidal dose response curves, and IC50 values were determined.

VEGFR-3 = VEGFR-3 (Homo sapiens, UniProt P35916); assay: Biochemical kinase assay (in vitro assay), VEGFR-3; design: expressed in transfected cells; host or cells: HEK293T; settings: read-out: IC50 in biochemical assays, VEGFR-3
Description: (§1) Sigma protein kinase assay kits were used. 125 μL per well of Poly-Glu-Tyr (PGT) solution (250 μg/mL of PGT in PBS without Ca^2+, Mg^2+ and sodium bicarbonate) was added in a 96-well plate and overnight incubation was performed at 37 °C. The day after, coating solution was removed and wells were washed with 300 μL of PBS-Tween-20 0.05 %. The washing buffer was removed and wells were dried for 2 h at 37 °C. 90 μL of the kinase buffer was supplemented with ATP (30 μM for VEGFR-1 and VEGFR-3, and 15 μM for VEGFR-2), and the compound (EVT801 or SAR401849 at the indicated concentration or 1 % DMSO for the vehicle control). The phosphorylation reaction was initiated by the addition of 20 μL of kinase buffer without ATP supplemented with 100 ng of the tyrosine kinase (or without tyrosine kinase as control). Plates were incubated with gentle agitation at room temperature for 30 min. After 3 washes with 300 μL of washing buffer, 100 μL of phosphotyrosine specific monoclonal antibody conjugated to HRP (1:30,000) was added onto the phosphorylated PGT. Plates were incubated for 30 min at room temperature under gentle agitation. Then, 3 washes with 300 μL of washing buffer were performed. […] After 7 min at room temperature, the reaction was stopped by addition of 100 μL of […], and absorbance was determined with an Endvision spectrophotometer at 492 nm.

VEGFR-2 = VEGFR-2 (Homo sapiens, UniProt P35968); assay: Biochemical kinase assay (in vitro assay), VEGFR-2; design: expressed in transfected cells; host or cells: HEK293T; settings: read-out: IC50 in biochemical assays, VEGFR-2
Description: as §1

Pharmacokinetics in mice = format: in vivo; settings: mouse; for half-life / Cmax / AUC(0-t): plasma; for AUC(0-t): read-out: AUC(0–24)
Description: Plasma samples and tumor homogenates were mixed with the precipitant solution (acetonitrile containing internal standard). The supernatant (180 µL) was transferred in a 96-well plate and 5 µL were injected. EVT801 and its main metabolite were quantified by LC-MS/MS following standard conditions.
Quality control (QC) samples and calibration samples were prepared daily by spiking mouse plasma and tumor homogenates with working solutions prepared from independent weighing. The calibration curve was calculated from calibration levels at 1, 2.5, 5, 10, 25, 50, 100, 200, 500, 1000 and 2000 ng/mL. A variation of ± 20 % versus the nominal concentrations was used as criteria for qualification of samples; at least 75 % of all standards needed to be within this window, and at least 6 concentration values within tis window were used for quantification. The concentrations for QC samples were 5, 50, 150, 450 and 1500 ng/mL. At least 66 % of all QC samples, and at least 50 % of QC samples at a given concentration were within the ± 20 % window. Quadratic regressions were applied, not forced through the origin, and weighted by 1/x (with R^2 > 0.98). The lower limit of quantification for both compounds was set to 1 ng/mL for plasma and to 3 ng/g for tumor samples.

[1] = tested on: NCI-H1703 tumor xenografts; assay: NCI-H1703 subcutaneous xenograft tumor mouse model; format: in vivo, mice; settings: 30 mg/kg twice per day
Description: A total number of 40 homozygous NOD.CB17 Prkdc^scid/NCrHsd mice were used for the xenograft tumor model. On the day of implantation, NCI-H1703 cells were harvested and suspended at a concentration of 1 × 10^8 cells per mL in an equal mix of Cultrex:RPMI without supplements. A volume of 100 μL was injected into the right hind flank of each animal. Tumor volumes were monitored until mean tumor volume reached 150 mm^3. Then, mice were stratified into four treatment groups of each 10 mice and orally dosed twice per day with either EVT801 30 mg/kg and EVT801 vehicle [Soluplus (BASF)/water/hydroxypropylcellulose SL (Nisso America)], or 30 mk/kg pazopanib and pazopanib vehicle (0.5% Hydroxypropyl methylcellulose trimellitate (HPMCT) + 0.1% Tween-80). A period of 8 hours was observed between the first and second daily dose.

ERK phosphorylation = assay: Immunoblot of phosphorylated ERK in NCI-H1703 cells; format: cell-based, human; settings: 1 μmol/L
Description: For immunoblotting, 2 x 10^5 cells were scraped and lysed with RIPA lysis buffer (Sigma, R0278), supplemented with protease inhibitor cocktail (Ozyme, 5872S). After separation by SDS-PAGE, proteins were transferred to PVDF membranes. Membranes were blocked with 5 % milk in TBS-T for saturation step and incubated with phosphorylated ERK (CellSignaling, 4377, 1:1000) or GAPDH (CellSignaling, 5174, 1:1000) antibodies overnight, followed by an anti-mouse IgG, secondary antibody HRP linked (CellSignaling, 7076, 1:2000) in antibodies buffer (TBS-Tween 0.05 %, 0.1 % BSA) for 2 h. Membranes were washed 3 x 10 min in TBS before adding chemiluminescent substrate (Supersignal West Pico Plus, 54580, ThermoFisher) and imaged by the Pxi6 station (Ozyme).

NCI-H1703 cells = assay: NCI-H1703 viability (ATP reduction); format: cell-based; settings: Homo sapiens, in vitro
Description: NCI-H1703 were seeded in 96-well plates coated with 0.3 % gelatin (5 x 10^3 cells per well) and were incubated in RPMI 0.1 % FCS with VEGF-C (300 ng/mL) or VEGF-D (300 ng/mL) in the absence or presence of increasing doses of EVT801. After 5 days, viable cells were quantified with the cell Titer-glo luminescent cell viability assay (Promega) as previously described (1).

Chain of VEGFR-3 (P35916 25-1363): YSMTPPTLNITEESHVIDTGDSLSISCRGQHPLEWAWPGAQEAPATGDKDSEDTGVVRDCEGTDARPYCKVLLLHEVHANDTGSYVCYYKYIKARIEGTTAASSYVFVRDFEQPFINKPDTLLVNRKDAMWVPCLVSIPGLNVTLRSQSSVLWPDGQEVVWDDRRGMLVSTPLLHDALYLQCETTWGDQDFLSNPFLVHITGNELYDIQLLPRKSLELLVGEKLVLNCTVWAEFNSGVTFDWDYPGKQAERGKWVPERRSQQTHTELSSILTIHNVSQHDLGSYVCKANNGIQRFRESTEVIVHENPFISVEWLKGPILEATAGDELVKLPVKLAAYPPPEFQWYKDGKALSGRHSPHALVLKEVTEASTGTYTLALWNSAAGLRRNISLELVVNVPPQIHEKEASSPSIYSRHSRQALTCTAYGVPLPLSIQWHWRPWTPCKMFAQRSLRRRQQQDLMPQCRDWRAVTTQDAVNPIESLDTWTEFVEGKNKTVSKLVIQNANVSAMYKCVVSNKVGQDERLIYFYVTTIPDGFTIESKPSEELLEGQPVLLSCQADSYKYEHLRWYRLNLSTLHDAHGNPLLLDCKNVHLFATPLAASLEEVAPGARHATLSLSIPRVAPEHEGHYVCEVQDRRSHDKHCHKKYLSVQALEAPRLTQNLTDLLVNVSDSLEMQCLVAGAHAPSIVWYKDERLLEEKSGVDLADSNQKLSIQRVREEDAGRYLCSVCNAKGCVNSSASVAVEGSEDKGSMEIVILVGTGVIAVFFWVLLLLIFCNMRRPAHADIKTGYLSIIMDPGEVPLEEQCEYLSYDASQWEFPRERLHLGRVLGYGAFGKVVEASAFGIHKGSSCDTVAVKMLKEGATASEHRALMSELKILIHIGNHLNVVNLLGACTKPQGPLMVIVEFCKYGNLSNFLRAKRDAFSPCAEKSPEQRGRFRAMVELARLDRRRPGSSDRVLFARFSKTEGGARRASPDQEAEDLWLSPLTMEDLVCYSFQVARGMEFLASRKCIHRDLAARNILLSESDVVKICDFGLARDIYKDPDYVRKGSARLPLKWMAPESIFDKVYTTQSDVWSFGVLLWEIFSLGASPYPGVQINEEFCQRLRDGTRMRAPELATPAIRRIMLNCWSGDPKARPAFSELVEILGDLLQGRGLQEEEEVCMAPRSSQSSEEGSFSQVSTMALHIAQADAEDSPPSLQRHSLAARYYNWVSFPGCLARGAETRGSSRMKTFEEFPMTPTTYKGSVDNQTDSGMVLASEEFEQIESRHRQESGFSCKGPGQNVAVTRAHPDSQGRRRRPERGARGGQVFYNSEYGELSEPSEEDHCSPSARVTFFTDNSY
Chain of VEGFR-2 (P35968 20-1356): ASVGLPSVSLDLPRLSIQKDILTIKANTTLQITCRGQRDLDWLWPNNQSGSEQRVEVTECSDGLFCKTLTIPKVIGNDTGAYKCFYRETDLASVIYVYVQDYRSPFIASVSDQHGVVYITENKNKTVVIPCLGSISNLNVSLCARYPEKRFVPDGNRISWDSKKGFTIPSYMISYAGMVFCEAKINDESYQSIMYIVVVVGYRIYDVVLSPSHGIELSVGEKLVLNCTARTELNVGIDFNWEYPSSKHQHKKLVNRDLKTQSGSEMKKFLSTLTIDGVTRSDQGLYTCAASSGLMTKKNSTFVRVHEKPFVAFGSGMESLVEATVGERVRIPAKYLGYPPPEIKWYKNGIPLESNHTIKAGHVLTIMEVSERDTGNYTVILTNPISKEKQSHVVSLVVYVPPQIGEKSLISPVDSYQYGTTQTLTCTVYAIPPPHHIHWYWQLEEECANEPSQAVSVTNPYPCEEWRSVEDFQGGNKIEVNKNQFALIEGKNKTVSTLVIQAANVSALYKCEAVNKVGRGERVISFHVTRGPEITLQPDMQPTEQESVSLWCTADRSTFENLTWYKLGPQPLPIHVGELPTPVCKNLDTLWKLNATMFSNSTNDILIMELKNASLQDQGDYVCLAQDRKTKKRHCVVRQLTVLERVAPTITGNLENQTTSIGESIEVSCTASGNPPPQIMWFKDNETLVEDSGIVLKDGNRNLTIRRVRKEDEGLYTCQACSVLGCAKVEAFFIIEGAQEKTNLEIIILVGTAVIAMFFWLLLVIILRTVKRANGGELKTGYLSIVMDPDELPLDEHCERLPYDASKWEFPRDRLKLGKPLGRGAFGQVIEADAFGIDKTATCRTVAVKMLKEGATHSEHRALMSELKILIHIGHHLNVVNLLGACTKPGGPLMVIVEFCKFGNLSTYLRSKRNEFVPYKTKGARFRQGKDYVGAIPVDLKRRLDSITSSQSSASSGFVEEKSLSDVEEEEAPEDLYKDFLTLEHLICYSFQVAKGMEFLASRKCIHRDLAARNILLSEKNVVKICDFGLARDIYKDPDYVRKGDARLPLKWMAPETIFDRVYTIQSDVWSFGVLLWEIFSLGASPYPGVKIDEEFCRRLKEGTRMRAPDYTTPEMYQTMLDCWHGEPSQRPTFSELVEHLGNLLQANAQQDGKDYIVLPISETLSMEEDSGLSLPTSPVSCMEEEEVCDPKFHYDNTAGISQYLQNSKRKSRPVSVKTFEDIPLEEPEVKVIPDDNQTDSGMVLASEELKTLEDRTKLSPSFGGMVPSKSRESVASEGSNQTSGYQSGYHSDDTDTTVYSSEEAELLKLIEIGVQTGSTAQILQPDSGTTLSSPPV

CCn1c(N)c(-c2ncc[nH]2)c(=O)c2ccc(C#C[C@@](C)(O)COC)nc21 [EVT801]
IC50 (hLMVEC; read-out: IC50, inhibition of VEGF-A-induced hLMVEC proliferation): 155 nM
IC50 (hLMVEC; read-out: IC50, inhibition of VEGF-C-induced hLMVEC proliferation): 15 nM
IC50 (hLMVEC; read-out: IC50, inhibition of VEGF-D-induced hLMVEC proliferation): 8 nM
maximum inhibition of VEGF-A-induced hLMVEC proliferation (hLMVEC; VEGF-A): 65%
maximum inhibition of VEGF-C-induced hLMVEC proliferation (hLMVEC; VEGF-C): 74%
maximum inhibition of VEGF-D-induced hLMVEC proliferation (hLMVEC; VEGF-D): 100%
IC50 (VEGFR-3): 11 nM
IC50 (VEGFR-2): 130 nM
half-life (Pharmacokinetics in mice; Balb/c, 30 mg/kg, Balb/c mice, 30 mg/kg, read-out: T1/2 in plasma (converted)): 2.7 h
half-life (Pharmacokinetics in mice; Balb/c, 100 mg/kg, Balb/c mice, 100 mg/kg, read-out: T1/2 in plasma (converted)): 1.1 h
half-life (Pharmacokinetics in mice; Balb/c, 100 mg/kg, Balb/c with 4T1 tumor, 100 mg/kg for 2 weeks): 3.2 h
half-life (Pharmacokinetics in mice; SCID, 10 mg/kg, SCID mice with tumor, 10 mg/kg for 2 weeks, read-out: T1/2 in plasma (converted)): 0.9 h
half-life (Pharmacokinetics in mice; SCID, 30 mg/kg, SCID mice with tumor, 30 mg/kg for 2 weeks, read-out: T1/2 in plasma (converted)): 1.6 h
Cmax (Pharmacokinetics in mice; oral, 100 mg/kg/day): 8940 ng/mL
AUC(0-t) (Pharmacokinetics in mice; oral, 100 mg/kg/day): 22000 ng·h/mL
Cmax (Pharmacokinetics in mice; po, 30 mg/kg twice per day): 8390 ng/mL
AUC(0-t) (Pharmacokinetics in mice; po, 30 mg/kg twice per day): 28000 ng·h/mL
Kp (Pharmacokinetics in mice; Balb/c with 4T1 tumor, 100 mg/kg for 2 weeks, read-out: Tissue to plasma (AUC)): 0.88
CD31 IHC, tumor vessels [1]: decreased the number of vessels while increasing the proportion of larger ones
decrease of tumor weight compared with vehicle ([1]; endpoint): 82%
T/C ratio, tumor growth ([1]; oral, vs corresponding vehicle): 24%
reduction of ERK phosphorylation induced by VEGF-C and VEGF-D (ERK phosphorylation): better than pazopanib
IC50 (NCI-H1703 cells): 109 nM
